For 27 compounds, Kb results are on record in patent publication US11045472B2, “Quinazoline-pyridine derivatives for the treatment of cancer-related disorders” (ARCUS BIOSCIENCES, INC., priority 2017, dated 2021).

Where only a bound is given, the exact number is not on record here.

By Kb is commonly meant the affinity of an antagonist, worked out from how it opposes an agonist.

The target in assay [1] is T1, Human A2AR (Homo sapiens, UniProt P29274).
T1 construct: expressed in transfected cells; host or cells: CHO-T-REx cells (inducible expression)
As to the kind of experiment: human 2A Adenosine Receptor (A2aR) CHO-TREx cAMP functional assay. In kind it is cell-based. Conditions: cAMP antagonist functional assay, CHO-T-REx cells expressing Human A2AR, NECA stimulation; read-out: Potency: A2AR KB. The protocol:
Measurement of the Adenosine Receptor Activity of Compounds using a human 2A Adenosine Receptor (A2aR) CHO-TREx cAMP Functional Assay
The cAMP antagonist functional assay (Perkin Elmer) was performed on CHO-T-REx cells induced to express Human A2AR. Cells were seeded to a white 384-well Opti plate at a density of 1,000 to 2,500 cells per well followed by incubation with various concentrations of compound (ranging from 1 μM to 0 μM) at 37° C. for 1 hour.
(§1) A 1:2 serial dilution of NECA (Sigma Aldrich) from 1 μM to 0 μM was added to the cell stimulation mixture and incubated for 30 min at 37° C. After 30 min incubation, 5 μL of Ulight-anti-cAMP (1:150 dilution with conjugate and lysis buffer provided by Perkin Elmer) and 5 μL of Eu-cAMP tracer (1:50 dilution with conjugate and lysis buffer provided by Perkin Elmer) was added the cells and incubated for an hour. FRET signal was detected with an Envision multilabel plate reader (Perkin Elmer) loaded with 615 nm […] filters and 665 nm emission filters.
(§2) Data analysis was performed using on GraphPad Prism (version 7.02) to determine the KB of the test compounds.

For assay [2], the target named is T2, Human A2BR (Homo sapiens, UniProt P29275).
T2 sequence (P29275 1-332): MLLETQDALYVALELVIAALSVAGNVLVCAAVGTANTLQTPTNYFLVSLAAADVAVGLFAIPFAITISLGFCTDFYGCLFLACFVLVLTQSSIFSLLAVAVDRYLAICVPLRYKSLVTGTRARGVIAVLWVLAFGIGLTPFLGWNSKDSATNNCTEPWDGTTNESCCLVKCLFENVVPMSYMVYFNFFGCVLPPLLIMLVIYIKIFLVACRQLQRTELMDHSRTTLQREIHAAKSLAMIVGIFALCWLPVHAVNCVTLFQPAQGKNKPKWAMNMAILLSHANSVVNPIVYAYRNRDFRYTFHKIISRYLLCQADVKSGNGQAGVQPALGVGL
As to the kind of experiment: Human 2B Adenosine Receptor CHO-K1 cAMP functional assay. In kind it is cell-based. Conditions: cAMP antagonist functional assay, CHO-K1 cells stably expressing Human A2BR, NECA stimulation; read-out: Potency: A2BR KB. The protocol:
Measurement of the Adenosine Receptor Activity of Compounds Using a Human 2B Adenosine Receptor CHO-K1 cAMP Functional Assay
CHO-K1 cells stably expressing Human Adenosine 2B Receptor (A2BR: Cat. No. M000329, GenScript) were purchased from GenScript Inc., Piscataway, N.J. 08854, USA.
The cAMP antagonist functional assay (Perkin Elmer) was performed on CHO-K1 cells stably expressing Human A2BR. 1×10^6 cells were seeded in T75 flasks and cultured at 37° C. and 5% CO2 overnight. 2,000-4,000 cells/well of stably-expressed A2bR CHO-K1 cells were then seeded to a white 384-well Opti plate followed by compound 1 incubation at various concentrations (ranging from 1 μM to 0 μM) at 37° C. for 1 hour.
as §1, §2

T1 sequence (P29274 whole entry): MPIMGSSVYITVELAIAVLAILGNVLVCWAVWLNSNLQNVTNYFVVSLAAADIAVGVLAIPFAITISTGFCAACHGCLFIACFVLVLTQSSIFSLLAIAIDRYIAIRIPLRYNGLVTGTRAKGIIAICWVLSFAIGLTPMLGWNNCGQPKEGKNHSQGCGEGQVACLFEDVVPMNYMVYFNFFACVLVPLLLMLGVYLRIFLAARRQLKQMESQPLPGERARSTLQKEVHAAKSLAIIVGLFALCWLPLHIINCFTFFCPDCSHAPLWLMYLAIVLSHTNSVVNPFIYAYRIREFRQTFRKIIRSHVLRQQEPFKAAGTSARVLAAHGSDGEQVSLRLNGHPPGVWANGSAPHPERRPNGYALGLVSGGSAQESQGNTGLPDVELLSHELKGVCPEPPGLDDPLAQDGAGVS

On to `CCOc1cccc2c(-c3cn(Cc4cccc(C(C)(C)O)n4)nn3)nc(N)nc12`, for which the Kb in assay [1] was below 100 nM; in assay [2], 100 to 1000 nM.
The corresponding values for `COc1cc(F)cc2c(-c3cn(Cc4cccc(C(C)(C)O)n4)nn3)nc(N)nc12` are below 100 nM and below 100 nM.
The corresponding values for `COc1cccc2c(-c3cn(Cc4cccc(C(C)(C)O)n4)nn3)nc(N[C@H]3CCOC3)nc12` are below 100 nM and below 100 nM.
Taken in the same sequence, the figures for `CCOC(=O)N1CCC(c2cccc(Cn3cc(-c4nc(N)nc5c(OC)cccc45)nn3)n2)CC1` were below 100 nM and below 100 nM.
Regarding `COc1cccc2c(-c3cn(Cc4cccc(C(C)(C)O)n4)nn3)nc(NC3CC3)nc12`, the Kb in assay [1] and in assay [2] was below 100 nM each time.
For the compound `COc1cccc2c(-c3cn(Cc4cccc(C5(O)COC5)n4)nn3)nc(N)nc12`, the Kb in assay [1] and in assay [2] was below 100 nM throughout.
Take `COc1cccc2c(-c3cn(Cc4cccc(-c5ccc(C(=O)O)cc5)n4)nn3)nc(N)nc12`: the Kb in assay [1] and in assay [2] was below 100 nM in each case.
Take `COc1cccc2c(-c3cn(Cc4cccc(COC[C@H]5CCCO5)n4)nn3)nc(N)nc12`: the Kb in assay [1] and in assay [2] was below 100 nM each time.
Turning to `COc1cccc2c(-c3cn(Cc4cccc(C5(O)CCOCC5)n4)nn3)nc(N)nc12`, the Kb in assay [1] and in assay [2] was below 100 nM each time.
For the compound `COc1cccc2c(-c3cn(Cc4cccc(-c5cccc(C(=O)O)c5)n4)nn3)nc(N)nc12`, the Kb in assay [1] and in assay [2] was below 100 nM in each case.
In the case of `COc1cccc2c(-c3cn(Cc4cccc(-c5ccccc5C(=O)O)n4)nn3)nc(N)nc12`, the Kb in assay [1] is below 100 nM; in assay [2], 100 to 1000 nM.
As for `CC(C)(CO)c1cccc(Cn2cc(-c3nc(N)nc4c(F)cccc34)nn2)n1`, the Kb in assay [1] and in assay [2] was below 100 nM each time.
With `COc1cccc2c(-c3cn(Cc4cccc(N5CCC(O)C5)n4)nn3)nc(N)nc12` (stereo not drawn), the Kb in assay [1] and in assay [2] was below 100 nM in each case.
For the compound `COc1cccc2c(-c3cn(Cc4cccc(C(C)(O)C(F)(F)F)n4)nn3)nc(N)nc12` (stereo not drawn), the Kb in assay [1] and in assay [2] was below 100 nM each time.
As to `COc1cccc2c(-c3cn(Cc4cccc([C@](C)(O)C(F)(F)F)n4)nn3)nc(N)nc12`, the Kb in assay [1] and in assay [2] was below 100 nM each time.
`COc1c(F)ccc2c(-c3cn(Cc4cccc(C(C)(C)CO)n4)nn3)nc(N)nc12`: the Kb in assay [1] and in assay [2] was below 100 nM throughout.
As for `COc1ccc2c(-c3cn(Cc4cccc(C(C)(C)O)n4)nn3)nc(N)nc2c1`, the Kb in assay [1] and in assay [2] was below 100 nM in each case.
As for `COc1c(F)ccc2c(-c3cn(Cc4cccc(C5(O)COC5)n4)nn3)nc(N)nc12`, the Kb in assay [1] and in assay [2] was below 100 nM in each case.
As to `COc1cccc2c(-c3cn(Cc4cccc([C@@](C)(O)C(F)(F)F)n4)nn3)nc(N)nc12`, the Kb in assay [1] and in assay [2] was below 100 nM throughout.
In the case of `CC(C)(O)c1cccc(Cn2cc(-c3nc(N)nc4cc(C#N)ccc34)nn2)n1`, the Kb in assay [1] and in assay [2] was below 100 nM throughout.
As for `COc1cccc2c(-c3cn(Cc4cccc(C(C)(C)O)n4)nn3)nc(NC(C)C)nc12`, the Kb in assay [1] and in assay [2] was below 100 nM each time.
For the compound `Nc1nc(-c2cn(Cc3cccc(C4(O)COC4)n3)nn2)c2cccc(F)c2n1`, the values for the Kb in assay [1] and in assay [2] were below 100 nM and 100 to 1000 nM, respectively.
For `COc1cccc2c(-c3cn(Cc4cccc(N5CCCC5=O)n4)nn3)nc(N)nc12`, the Kb in assay [1] and in assay [2] was below 100 nM in each case.
For the compound `COCCOCc1cccc(Cn2cc(-c3nc(N)nc4c(Cl)cccc34)nn2)n1`, the Kb in assay [1] and in assay [2] was below 100 nM in each case.
For the compound `COc1cccc2c(-c3cn(Cc4cccc(C(C)(C)CO)n4)nn3)nc(N)nc12`, the Kb in assay [1] and in assay [2] was below 100 nM throughout.
For `CC(C)(O)c1cccc(Cn2cc(-c3nc(N)nc4c(F)c(F)ccc34)nn2)n1`, the Kb in assay [1] and in assay [2] was below 100 nM throughout.
Turning to `COc1cccc2c(-c3cnn(Cc4cccc(C5(O)CCC5)n4)c3)nc(N)nc12`, the Kb in assay [1] and in assay [2] was below 100 nM throughout.
